Measured values: patent US20090270371A1, “QUINOLINE DERIVATIVES USEFUL IN THE TREATMENT OF MGLUR5 RECEPTOR-MEDIATED DISORDERS” (priority 2005, published 2009)

These compounds were tested against T1, rat mGluR5 receptors (Rattus norvegicus, UniProt P31424) (assay: mGluR5 receptor binding test, rat cerebro-cortical membrane preparation, [3H]-M-MPEP). Conditions: affinity for rat mGluR5 receptors; [3H]-M-MPEP (2 nM) radioligand.
T1 construct: rat cerebro-cortical membrane preparation was used; from tissue; host or cells: rat cerebral cortex membranes
Outline: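 Radioligand binding used rat cerebro-cortical membranes with 2 nM [3H]-M-MPEP. Nonspecific binding was defined with 10 μM M-MPEP. The method follows a modification of a published procedure.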

T1 sequence (P31424 21-1203): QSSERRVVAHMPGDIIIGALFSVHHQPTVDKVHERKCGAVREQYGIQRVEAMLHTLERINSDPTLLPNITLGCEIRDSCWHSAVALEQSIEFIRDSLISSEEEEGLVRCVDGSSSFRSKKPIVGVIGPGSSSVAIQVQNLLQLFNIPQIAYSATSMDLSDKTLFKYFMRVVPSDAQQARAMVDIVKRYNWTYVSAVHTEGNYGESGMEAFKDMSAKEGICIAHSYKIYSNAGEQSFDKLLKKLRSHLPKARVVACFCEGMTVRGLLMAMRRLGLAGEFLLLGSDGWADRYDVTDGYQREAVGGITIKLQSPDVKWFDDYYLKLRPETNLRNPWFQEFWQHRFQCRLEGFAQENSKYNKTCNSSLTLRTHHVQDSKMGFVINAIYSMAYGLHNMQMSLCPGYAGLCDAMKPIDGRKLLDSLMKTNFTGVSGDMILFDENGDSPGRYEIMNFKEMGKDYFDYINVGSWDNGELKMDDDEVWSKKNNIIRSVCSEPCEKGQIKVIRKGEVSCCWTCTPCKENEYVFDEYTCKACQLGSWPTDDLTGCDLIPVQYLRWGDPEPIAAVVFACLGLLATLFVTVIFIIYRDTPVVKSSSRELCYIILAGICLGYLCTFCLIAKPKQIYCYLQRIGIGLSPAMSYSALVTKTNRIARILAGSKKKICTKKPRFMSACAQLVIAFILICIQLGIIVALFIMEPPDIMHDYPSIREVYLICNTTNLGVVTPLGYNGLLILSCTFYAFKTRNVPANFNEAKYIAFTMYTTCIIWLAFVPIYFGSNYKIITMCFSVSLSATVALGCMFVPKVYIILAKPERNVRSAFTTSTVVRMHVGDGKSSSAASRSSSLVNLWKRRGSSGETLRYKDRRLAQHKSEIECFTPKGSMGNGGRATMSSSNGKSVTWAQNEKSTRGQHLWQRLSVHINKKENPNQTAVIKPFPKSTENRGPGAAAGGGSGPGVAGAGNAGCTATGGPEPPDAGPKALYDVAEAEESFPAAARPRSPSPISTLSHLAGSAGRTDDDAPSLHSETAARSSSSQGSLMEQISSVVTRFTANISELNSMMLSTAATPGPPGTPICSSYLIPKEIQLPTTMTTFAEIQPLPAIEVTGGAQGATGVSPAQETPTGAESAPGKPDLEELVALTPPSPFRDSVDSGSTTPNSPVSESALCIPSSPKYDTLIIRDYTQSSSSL

Row | Structure (SMILES) | Ki [nM]
1 | Cc1ccc(S(=O)(=O)c2cnc3ccccc3c2N2CCC(C)CC2)cc1C [Compound 3, 3-(3,4-Dimethyl-benzenesulfonyl)-4-(4-methyl-piperidin-1-yl)-quinoline] | < 200
2 | CCOc1ccc2ncc(S(=O)(=O)c3ccc(C)cc3)c(N3CCC(C)CC3)c2c1 [Compound 114] | > 500
3 | CC1CCN(c2c(S(=O)(=O)c3ccccc3)cnc3cc4c(cc23)OCCO4)CC1 [Compound 48] | < 200
4 | Cc1ccc2ncc(S(=O)(=O)c3cc(Cl)cc(Cl)c3)c(N3CCOCC3)c2c1 [Compound 264] | 200 to 500
5 | CC1CCN(c2c(S(=O)(=O)c3cc(F)cc(F)c3)cnc3c(F)cccc23)CC1 [Compound 227] | > 500
6 | COc1cccc(S(=O)(=O)c2cnc3cc(F)ccc3c2N2CCC(C)CC2)c1 [Compound 175] | < 200
7 | Cc1ccc(S(=O)(=O)c2cnc3cc4c(cc3c2N2CCOCC2)OCCO4)cc1 [Compound 94] | > 500
8 | COc1ccc2ncc(S(=O)(=O)c3ccc(OC)c(OC)c3)c(N3CCC(C)CC3)c2c1 [Compound 242] | > 500
9 | Cc1ccc2ncc(S(=O)(=O)c3cccc(Cl)c3)c(N3CCOCC3)c2c1 [Compound 263] | > 500
10 | O=S(=O)(c1ccc(Cl)cc1)c1cnc2ccc(F)cc2c1N1CCOCC1 [Compound 120] | > 500
11 | Cc1cc(C)cc(S(=O)(=O)c2cnc3cc(F)ccc3c2N2CCC(C)CC2)c1 [Compound 184] | 200 to 500
12 | Cc1ccc2ncc(S(=O)(=O)c3ccc(Cl)cc3)c(N3CCOCC3)c2c1 [Compound 39] | > 500
13 | O=S(=O)(c1cc(F)cc(F)c1)c1cnc2cc(Cl)ccc2c1N1CCOCC1 [Compound 319] | 200 to 500
14 | CC1CCN(c2c(S(=O)(=O)c3ccc(F)c(Cl)c3)cnc3ccc(F)cc23)CC1 [Compound 349] | 200 to 500
15 | O=S(=O)(c1ccccc1)c1cnc2ccc(F)cc2c1N1CCCCCC1 [Compound 118] | > 500
16 | CC1CCN(c2c(S(=O)(=O)c3ccc(Cl)cc3)cnc3c(F)cccc23)CC1 [Compound 231] | < 200
17 | N#Cc1cccc(S(=O)(=O)c2cnc3ccc(F)cc3c2N2CCOCC2)c1 [Compound 281] | > 500
18 | CN1CCN(c2c(S(=O)(=O)c3ccc(Cl)cc3)cnc3ccccc23)CC1 [Compound 61] | > 500
19 | CCN(CC)c1c(S(=O)(=O)c2ccc(C)cc2)cnc2ccc(OC)cc12 [Compound 110] | > 500
20 | CC1CCN(c2c(S(=O)(=O)c3cc(F)cc(F)c3)cnc3cc(F)ccc23)CC1 [Compound 170] | 200 to 500
21 | Cc1ccc2ncc(S(=O)(=O)c3ccc(C)c(F)c3)c(N3CCC(C)CC3)c2c1 [Compound 165] | < 200
22 | COc1ccc(S(=O)(=O)c2cnc3ccc(F)cc3c2N2CCC(C)CC2)cc1OC [Compound 143] | 200 to 500
23 | Cc1ccc2ncc(S(=O)(=O)c3ccc(C)c(Cl)c3)c(N3CCOCC3)c2c1 [Compound 266] | 200 to 500
24 | Cc1ccc(S(=O)(=O)c2cnc3ccc(F)cc3c2N2CCOCC2)cc1F [Compound 287] | > 500
25 | O=S(=O)(c1ccc(Cl)cc1)c1cnc2ccc(Cl)cc2c1N1CCOCC1 [Compound 295] | > 500

Row | Structure (SMILES) | Ki [nM]
26 | Cc1ccc(N2CCN(c3c(S(=O)(=O)c4ccccc4)cnc4ccc(F)cc34)CC2)c(C)c1 [Compound 68] | > 500
27 | CC1CCN(c2c(S(=O)(=O)c3cc(Cl)cc(Cl)c3)cnc3cc(Cl)ccc23)CC1 [Compound 188] | < 200
28 | O=S(=O)(c1ccccc1)c1cnc2cc(Cl)ccc2c1N1CCOCC1 [Compound 323] | > 500
29 | CCOc1ccc2ncc(S(=O)(=O)c3ccc(OC)cc3)c(N3CCC(C)CC3)c2c1 [Compound 102] | > 500
30 | CC1CCN(c2c(S(=O)(=O)c3ccccc3)cnc3cc(F)ccc23)CC1 [Compound 173] | < 200
31 | Cc1ccc2ncc(S(=O)(=O)c3ccccc3)c(N3CCOCC3)c2c1 [Compound 254] | < 200
32 | O=S(=O)(c1cc(Cl)cc(Cl)c1)c1cnc2cc(F)ccc2c1N1CCOCC1 [Compound 308] | 200 to 500
33 | O=S(=O)(c1ccc(F)c(Cl)c1)c1cnc2ccc(Cl)cc2c1N1CCOCC1 [Compound 302] | > 500
34 | Cc1ccc(S(=O)(=O)c2cnc3cc(Cl)ccc3c2N2CCC(C)CC2)cc1Cl [Compound 205] | < 200
35 | COc1cccc(S(=O)(=O)c2cnc3ccc(F)cc3c2N2CCC(C)CC2)c1 [Compound 145] | < 200
36 | CCN(CC)c1c(S(=O)(=O)c2ccc(Cl)cc2)cnc2ccc(F)cc12 [Compound 133] | > 500
37 | CC1CCN(c2c(S(=O)(=O)c3cc(F)cc(F)c3)cnc3ccc(Cl)cc23)CC1 [Compound 209] | < 200
38 | COc1ccc(Nc2c(S(=O)(=O)c3ccc(C)cc3)cnc3ccccc23)cc1OC [Compound 24] | > 500
39 | Cc1ccc(S(=O)(=O)c2cnc3ccc(Cl)cc3c2N2CCC(C)CC2)cc1F [Compound 217] | 200 to 500
40 | COc1ccc2ncc(S(=O)(=O)c3ccc(C)cc3)c(NCc3ccc(C)cc3)c2c1 [Compound 121] | > 500
41 | CC1CCN(c2c(S(=O)(=O)c3ccc(Cl)cc3)cnc3c(Cl)ccc(Cl)c23)CC1 [Compound 253] | 200 to 500
42 | Cc1ccc(S(=O)(=O)c2cnc3cc(F)ccc3c2N2CCOCC2)cc1 [Compound 303] | > 500
43 | O=S(=O)(c1cc(Cl)cc(Cl)c1)c1cnc2cc(Cl)ccc2c1N1CCOCC1 [Compound 318] | < 200
44 | CCc1ccc2ncc(S(=O)(=O)c3ccccc3)c(N3CCN(CC)CC3)c2c1 [Compound 63] | > 500
45 | Cc1ccc(S(=O)(=O)c2cnc3cc(F)ccc3c2N2CCC(C)CC2)cc1Cl [Compound 181] | < 200
46 | CCc1ccc2ncc(S(=O)(=O)c3ccccc3)c(N3CCCC3)c2c1 [Compound 35] | > 500
47 | COc1ccc(S(=O)(=O)c2cnc3c(F)cccc3c2N2CCOCC2)cc1 [Compound 338] | > 500
48 | CC1CCN(c2c(S(=O)(=O)c3ccccc3)cnc3ccc(Cl)cc23)CC1 [Compound 108] | > 500
49 | Cc1ccc(S(=O)(=O)c2cnc3ccc(F)cc3c2N2CCN(c3ccccc3)CC2)cc1 [Compound 67] | > 500
